Reference: patent US20240173329A1, “BELVARAFENIB FOR USE IN TREATMENT OF BRAIN CANCERS” (Genentech, Inc., priority 2021, published 2024)

Legend:
[1] = molecular target: T1, discoidin domain receptor tyrosine kinase 2 (DDR2) (Homo sapiens, UniProt Q16832); assay: panel of 189 kinase assays; type: biochemical
T1 sequence (Q16832 22-855): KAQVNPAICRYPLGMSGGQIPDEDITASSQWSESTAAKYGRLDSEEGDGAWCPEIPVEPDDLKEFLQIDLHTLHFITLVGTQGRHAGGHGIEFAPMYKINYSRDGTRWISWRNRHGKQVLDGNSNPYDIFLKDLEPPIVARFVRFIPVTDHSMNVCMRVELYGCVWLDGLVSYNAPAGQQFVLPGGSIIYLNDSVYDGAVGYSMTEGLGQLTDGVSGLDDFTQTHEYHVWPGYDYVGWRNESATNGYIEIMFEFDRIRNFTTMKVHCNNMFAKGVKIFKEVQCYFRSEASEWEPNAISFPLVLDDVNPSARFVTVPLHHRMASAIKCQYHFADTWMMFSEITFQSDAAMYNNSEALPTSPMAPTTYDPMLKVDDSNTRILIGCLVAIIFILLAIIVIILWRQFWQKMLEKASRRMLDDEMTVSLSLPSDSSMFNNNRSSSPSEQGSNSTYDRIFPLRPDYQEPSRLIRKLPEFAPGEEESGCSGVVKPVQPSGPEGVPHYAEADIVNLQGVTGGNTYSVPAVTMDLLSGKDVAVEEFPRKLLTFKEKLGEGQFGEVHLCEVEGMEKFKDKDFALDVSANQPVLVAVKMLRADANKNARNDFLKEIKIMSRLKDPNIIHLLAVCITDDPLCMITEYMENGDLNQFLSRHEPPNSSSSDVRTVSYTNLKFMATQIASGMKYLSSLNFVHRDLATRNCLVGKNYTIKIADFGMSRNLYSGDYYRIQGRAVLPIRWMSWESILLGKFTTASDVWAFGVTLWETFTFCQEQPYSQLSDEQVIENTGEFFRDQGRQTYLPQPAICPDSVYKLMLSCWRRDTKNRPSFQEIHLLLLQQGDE

[2] = molecular target: discoidin domain receptor tyrosine kinase 1 (DDR1) (Homo sapiens, UniProt Q08345); assay: panel of 189 kinase assays; type: biochemical
[3] = test system: solid tumors harboring mutations in BRAF, KRAS, or NRAS genes; assay: open-label Phase Ia dose-escalation study; type: in vivo, human; details: for Median DOR: updated
Experimental: For instance, a completed, open-label, Phase Ia, dose-escalation investigated several doses and schedules of belvarafenib in patients with solid tumors harboring mutations in BRAF, KRAS, or NRAS genes. Efficacy was analyzed for 67 of 72 subjects who had at least 1 post-baseline tumor assessment. […] Fifty-nine (88.06%) subjects developed an event (progression of disease or death), all of which were reported as progressive disease (PD). In addition, median progression-free survival was 11.53 weeks and the 95% confidence interval for the median was [7.12 weeks, 13.38 weeks). […] Median DOR was elevated to 30.18 weeks in 800 mg BID group and 23.99 weeks in total group including DOR of a subject which is 100.29 weeks.

[4] = molecular target: T2, EPHA8 (Homo sapiens, UniProt P29322); assay: panel of 189 kinase assays; type: biochemical
T2 sequence (P29322 28-1005): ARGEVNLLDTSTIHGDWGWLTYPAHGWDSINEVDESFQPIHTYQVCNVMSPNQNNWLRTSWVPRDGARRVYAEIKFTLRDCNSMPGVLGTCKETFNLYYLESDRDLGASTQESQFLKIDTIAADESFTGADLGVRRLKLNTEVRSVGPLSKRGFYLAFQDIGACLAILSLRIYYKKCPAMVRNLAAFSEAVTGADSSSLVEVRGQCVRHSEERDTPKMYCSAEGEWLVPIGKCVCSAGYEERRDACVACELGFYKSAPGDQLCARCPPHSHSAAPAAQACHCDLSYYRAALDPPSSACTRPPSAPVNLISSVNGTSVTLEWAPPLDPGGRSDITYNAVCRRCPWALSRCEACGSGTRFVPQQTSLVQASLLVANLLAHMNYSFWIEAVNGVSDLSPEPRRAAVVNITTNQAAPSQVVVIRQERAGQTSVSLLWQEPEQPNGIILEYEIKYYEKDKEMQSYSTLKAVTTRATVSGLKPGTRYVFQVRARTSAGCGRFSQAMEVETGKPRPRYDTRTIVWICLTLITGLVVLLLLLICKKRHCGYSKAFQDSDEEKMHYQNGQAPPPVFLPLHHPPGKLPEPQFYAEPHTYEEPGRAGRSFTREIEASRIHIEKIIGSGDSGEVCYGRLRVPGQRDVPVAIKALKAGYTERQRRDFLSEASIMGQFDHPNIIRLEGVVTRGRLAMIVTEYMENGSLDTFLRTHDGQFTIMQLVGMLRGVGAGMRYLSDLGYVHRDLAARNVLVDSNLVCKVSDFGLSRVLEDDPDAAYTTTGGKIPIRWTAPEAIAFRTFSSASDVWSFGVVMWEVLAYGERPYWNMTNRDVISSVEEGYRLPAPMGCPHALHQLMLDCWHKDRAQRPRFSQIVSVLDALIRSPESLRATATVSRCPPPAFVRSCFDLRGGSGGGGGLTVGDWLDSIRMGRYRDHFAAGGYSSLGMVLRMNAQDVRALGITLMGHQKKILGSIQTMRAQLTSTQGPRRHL

Chain of discoidin domain receptor tyrosine kinase 1 (DDR1) (Q08345 19-913, species assumed): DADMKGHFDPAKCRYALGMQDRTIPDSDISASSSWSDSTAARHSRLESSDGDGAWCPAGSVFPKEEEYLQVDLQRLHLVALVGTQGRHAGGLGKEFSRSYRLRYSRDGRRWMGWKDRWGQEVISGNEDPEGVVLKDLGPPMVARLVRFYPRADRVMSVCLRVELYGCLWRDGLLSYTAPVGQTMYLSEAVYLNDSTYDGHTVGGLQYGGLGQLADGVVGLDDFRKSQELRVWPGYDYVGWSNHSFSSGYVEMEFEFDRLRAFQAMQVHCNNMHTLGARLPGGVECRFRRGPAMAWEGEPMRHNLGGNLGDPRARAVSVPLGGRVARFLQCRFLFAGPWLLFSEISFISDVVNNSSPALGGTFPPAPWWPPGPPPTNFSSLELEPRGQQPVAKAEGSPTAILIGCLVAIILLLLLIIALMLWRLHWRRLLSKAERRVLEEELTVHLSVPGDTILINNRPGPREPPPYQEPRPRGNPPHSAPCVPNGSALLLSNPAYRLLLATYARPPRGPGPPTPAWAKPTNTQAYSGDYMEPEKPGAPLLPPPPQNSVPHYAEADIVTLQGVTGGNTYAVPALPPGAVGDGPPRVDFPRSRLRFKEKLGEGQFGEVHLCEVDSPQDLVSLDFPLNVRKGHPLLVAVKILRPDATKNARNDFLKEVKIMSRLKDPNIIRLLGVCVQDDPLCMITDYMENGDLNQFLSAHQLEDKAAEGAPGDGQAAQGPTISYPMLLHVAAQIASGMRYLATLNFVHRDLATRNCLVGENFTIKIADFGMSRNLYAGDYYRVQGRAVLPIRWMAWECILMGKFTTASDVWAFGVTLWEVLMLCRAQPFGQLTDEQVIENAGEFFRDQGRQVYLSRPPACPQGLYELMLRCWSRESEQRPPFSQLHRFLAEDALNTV

Cc1ccc2c(Nc3cccc(Cl)c3F)nccc2c1NC(=O)c1csc2c(N)ncnc12 [Belvarafenib, 4-amino-N-(1-((3-chloro-2-fluorophenyl)amino)-6-methylisoquinolin-5-yl)thieno[3,2-d]pyrimidine-7-carboxamide]
inhibition at 1 µM [1]: > 90% | inhibition at 1 µM [2]: > 90% | Median DOR ([3]; 800 mg BID group): 30.18 weeks | Best overall response rate (BORR) ([3]; 67 evaluable subjects): 8.96% | objective response rate (ORR) ([3]; 67 evaluable subjects): 4.48% | subjects who developed an event (progression of disease or death) ([3]; 67 evaluable subjects): 88.06% | BORR, subgroup re-analysis ([3]; BRAF-mutant melanoma subjects (13)): 7.69% | median progression-free survival ([3]; in vivo): 11.53 weeks | DOR of a subject ([3]; single subject): 100.29 weeks | Disease control ([3]; subjects treated with 100 mg QD dose level or above): 50.57% | Median DOR ([3]; total group): 23.99 weeks | BORR, updated results ([3]; updated results): 10.45% | ORR, updated results ([3]; updated results): 4.48% | inhibition at 1 µM [4]: > 90%
